From US9868973B2, “Method for optimizing post-translational modifications on recombinant proteins” (STC Biologics, Inc., priority 2014, dated 2018)

Tested on: fucosyl transferase
Test: Modulation of glycosylation PTMs of trastuzumab biosimilar in CHO cells by FTI (Methods 1 and 2), 2AB glycan analysis
Format: cell-based, Chinese Hamster
Description: To obtain a recipe for production of a biosimilar with a similar glycosylation pattern to the original Herceptin®, CHO cells engineered to express the recombinant protein with an amino acid sequence identical to trastuzumab were first grown in the growth media without any inhibitors to establish a Baseline. The glycan species were analyzed using 2AB glycan method. It was observed that Peak 2 (G0) and Peak 6 (G1), and Peak 7 (mannose-5 and G1′) PTMs were lower for the biosimilar than their target PTMs.
G0, G1 and G1′ PTMs are non-fucosylated PTMs and are controlled by a host protein called fucosyl transferase and the mannose-5 PTM is controlled by the host protein known as α-mannosidase I. Fucosyl transferase can be inhibited by a variety of fucosyltransferase inhibitors shown in FIG. 2, α-mannosidase I can be inhibited by kifunensine.
Briefly to obtain trastuzumab with PTMs in the target range, cells were placed in growth media and treated with 2F-Peracetyl-Fucose (FTI) on day 7 at different concentrations (20 μM, 10 μM, 5 μM, 1 μM, 0.1 μM) to identify optimal drug concentration. On day 12 cells were harvested and the trastuzumab biosimilar isolated. […] FTI concentrations used to reach target PTMs are cell specific so it is expected that different concentrations of the FTI or other modulators would be required when a starting cell line is different from the one described in this example.
Different treatment methods such as Method 2 can be used to obtain target PTMs. For example, FTI can be added on a daily basis starting on day 5 (Table 3, Method 2) rather than on Day 7.

[1] = Method 1: 10 μM FTI on Day 7, trastuzumab biosimilar from CHO cells
[2] = Method 2: […]-[…] FTI every day starting at day 5, trastuzumab biosimilar from CHO cells

For `CC(=O)OC1O[C@@H](C)[C@@H](OC(C)=O)[C@@H](OC(C)=O)[C@@H]1F` (stereo partly shown) [FTI, 2F-Peracetyl-Fucose], the “G0, G1 and G1′ PTM levels versus target PTM range” value (10 μM FTI on day 7, harvest day 12) was “matched the target PTM range”, the “G0, G1 and G1′ PTM levels versus target PTMs” value (20 μM FTI on day 7, harvest day 12) was “increase of G0, G1 and G1′ PTMs above that of target PTMs” and the “PTMs versus target range” value (FTI at concentrations lower than 8 μM, day 7) was “outside the target range”. For the same compound, the “Glycan Species Peak 1” value [1] was 1.5%, the “Glycan Species Peak 2-G0” value [1] was 4% and the “Glycan Species Peak 3” value [1] was 1.5%. The “Glycan Species Peak 4-G0F” value [1] was 44%, the “Glycan Species Peak 5” value [1] was 0.8% and the “Glycan Species Peak 6-G1” value [1] was 1.8%. The “Glycan Species Peak 7- G1F/mannose 5” value [1] was 1.2%, the “Glycan Species Peak 8- (1, 6)G1F” value [1] was 26% and the “Glycan Species Peak 9 (1, 3)G1F” value [1] was 11%. For the same compound, the “Glycan Species Peak 10 G2F” value [1] was 6.5%, the “Glycan Species Peak 11” value [1] was 0.2% and the “Glycan Species Peak 12” value [1] was 0.25%. The “Glycan Species Peak 13” value [1] was 0.2%, the “Glycan Species Peak 14” value [1] was 0.2% and the “Glycan Species Peak 15” value [1] was 0.2%. For the same compound, the “Glycan Species Peak 4-G0F” value [2] was 44%, the “Glycan Species Peak 8- (1, 6)G1F” value [2] was 26% and the “Glycan Species Peak 9 (1, 3)G1F” value [2] was 11%. For the same compound, the “Glycan Species Peak 10 G2F” value [2] was 6.5%.
